# The source made the active and inactive calls. The calls are words filed in the database; no cut-off is given here.
# Tests used:
# [1] = molecular target: Epidermal growth factor receptor (Homo sapiens) (UniProt P00533); details: HEK293, at 50 nM
# Description: Inhibition of human recombinant His-tagged wild type EGFR expressed in HEK293 cells at 50 nM using poly[Glu:Tyr] (4:1) as substrate incubated for 60 mins by ELISA relative to control
# [2] = system: NCI-H1975; type: functional, cell-based; details: Homo sapiens, NCI-H1975, 72 h
# [3] = system: SW480; type: functional, cell-based; details: Homo sapiens, SW480, 72 h
# [4] = system: A549; type: functional, cell-based; details: Homo sapiens, A549, 72 h
# [5] = system: A-431; test: cells; details: Homo sapiens, A-431, 72 h
# Description: Antiproliferative activity against human A431 cells incubated for 72 hrs by MTT assay
# [6] = system: HCC827; type: functional, cell-based; details: Homo sapiens, HCC827, 72 h
# [7] = system: A549; test: Inhibition of cell migration in CM-dil-labelled human A549 cells xenografted in 48 hrs post-fertilization zebrafish embryos at 15 uM incubated for 48 hrs by confocal microscopic method; type: functional, cell-based
# [8] = system: A549; test: Induction of cell cycle arrest in human A549 cells assessed as accumulation at G0/G1 phase at 15 uM incubated for 48 hrs by PI staining based flow cytometric analysis (reference value: 51.73%); type: functional
# [9] = system: A549; test: Induction of cell cycle arrest in human A549 cells assessed as accumulation at S phase at 15 uM incubated for 48 hrs by PI staining based flow cytometric analysis (reference value: 33.67%); type: functional
# [10] = system: A549; test: Induction of cell cycle arrest in human A549 cells assessed as accumulation at G2/M phase at 15 uM incubated for 48 hrs by PI staining based flow cytometric analysis (reference value: 14.36%); type: functional
# [11] = system: A549; test: Induction of apoptosis in human A549 cells assessed as viable cells at 20 uM incubated for 48 hrs by annexin V -FITC and PI staining based flow cytometric analysis (reference value: 94.56%); type: functional; details: A549, 48 h, read-out: Activity
# [12] = system: A549; test: Induction of apoptosis in human A549 cells assessed as early apoptotic cells at 20 uM incubated for 48 hrs by annexin V -FITC and PI staining based flow cytometric analysis (reference value: 2.93%); type: functional
# [13] = system: A549; test: Induction of apoptosis in human A549 cells assessed as late apoptotic cells at 20 uM incubated for 48 hrs by annexin V -FITC and PI staining based flow cytometric analysis (reference value: 2.24%); type: functional
# [14] = system: A549; test: Induction of apoptosis in human A549 cells assessed as necrotic cells at 20 uM incubated for 48 hrs by annexin V -FITC and PI staining based flow cytometric analysis (reference value: 0.27%); type: functional
# [15] = system: A549; test: Induction of cell cycle arrest in human A549 cells assessed as accumulation at G0/G1 phase at 20 uM incubated for 48 hrs by PI staining based flow cytometric analysis (reference value: 51.73%); type: functional
# [16] = system: A549; test: Induction of cell cycle arrest in human A549 cells assessed as accumulation at S phase at 20 uM incubated for 48 hrs by PI staining based flow cytometric analysis (reference value: 33.67%); type: functional
# [17] = system: A549; test: Induction of cell cycle arrest in human A549 cells assessed as accumulation at G2/M phase at 20 uM incubated for 48 hrs by PI staining based flow cytometric analysis (reference value: 14.36%); type: functional
# [18] = molecular target: Epidermal growth factor receptor (Homo sapiens) (UniProt P00533); test: Inhibition of EGF-induced EGFR phosphorylation at Tyr-residue in human A549 cells at 0.4 to 10 uM preincubated for 2 hrs followed by EGF treatment and measured after 10 mins by Western blot analysis; type: cell-based
# [19] = molecular target: Epidermal growth factor receptor (Homo sapiens) (UniProt P00533); test: Inhibition of EGF-induced EGFR phosphorylation at Y1068 in human A549 cells at 0.4 to 10 uM preincubated for 2 hrs followed by EGF treatment and measured after 10 mins by Western blot analysis; type: cell-based
# [20] = molecular target: Epidermal growth factor receptor (Homo sapiens) (UniProt P00533); test: Inhibition of EGF-induced EGFR phosphorylation at Y992 in human A549 cells at 0.4 to 10 uM preincubated for 2 hrs followed by EGF treatment and measured after 10 mins by Western blot analysis; type: cell-based
# [21] = molecular target: Epidermal growth factor receptor (Homo sapiens) (UniProt P00533); test: Inhibition of EGF-induced EGFR phosphorylation at Tyr-residue in human A431 cells at 0.2 to 5 uM preincubated for 2 hrs followed by EGF treatment and measured after 10 mins by Western blot analysis; type: cell-based
# [22] = molecular target: Epidermal growth factor receptor (Homo sapiens) (UniProt P00533); test: Inhibition of EGF-induced EGFR phosphorylation at Y1068 in human A431 cells at 0.2 to 5 uM preincubated for 2 hrs followed by EGF treatment and measured after 10 mins by Western blot analysis; type: cell-based
# [23] = molecular target: Epidermal growth factor receptor (Homo sapiens) (UniProt P00533); test: Inhibition of EGF-induced EGFR phosphorylation at Y992 in human A431 cells at 0.2 to 5 uM preincubated for 2 hrs followed by EGF treatment and measured after 10 mins by Western blot analysis; type: cell-based
# [24] = Drug uptake in human A549 cells at 5 uM incubated for 2 hrs by fluorescence microscopic method; type: ADME, cell-based; details: a549, 2 h
# [25] = Drug localization in mitochondria of human A549 cells at 5 uM incubated for 30 mins by Mitotracker red staining based confocal microscopic method; type: ADME; details: a549, 0.5 h
# [26] = Drug localization in mitochondria of human A549 cells at 5 uM incubated for 30 mins by Mitotracker green staining based confocal microscopic method; type: ADME; details: a549, 0.5 h
# [27] = Drug localization in lysosome of human A549 cells at 5 uM incubated for 30 mins by Lysotracker red staining based confocal microscopic method; type: ADME, subcellular; details: a549, 0.5 h
# [28] = Drug uptake in human A549 cells incubated for 2 hrs by FACS analysis; type: ADME, cell-based; details: a549, 2 h
# [29] = Drug uptake in human A549 cells at 1 uM incubated for 2 hrs by FACS analysis (reference value: 0%); type: ADME, cell-based; details: a549, 2 h
# [30] = Drug uptake in human A549 cells at 5 uM incubated for 2 hrs by FACS analysis (reference value: 0%); type: ADME, cell-based; details: a549, 2 h
# [31] = Drug uptake in human A549 cells at 25 uM incubated for 2 hrs by FACS analysis (reference value: 0%); type: ADME, cell-based; details: a549, 2 h
# Chain of Epidermal growth factor receptor (Homo sapiens) (P00533 whole entry): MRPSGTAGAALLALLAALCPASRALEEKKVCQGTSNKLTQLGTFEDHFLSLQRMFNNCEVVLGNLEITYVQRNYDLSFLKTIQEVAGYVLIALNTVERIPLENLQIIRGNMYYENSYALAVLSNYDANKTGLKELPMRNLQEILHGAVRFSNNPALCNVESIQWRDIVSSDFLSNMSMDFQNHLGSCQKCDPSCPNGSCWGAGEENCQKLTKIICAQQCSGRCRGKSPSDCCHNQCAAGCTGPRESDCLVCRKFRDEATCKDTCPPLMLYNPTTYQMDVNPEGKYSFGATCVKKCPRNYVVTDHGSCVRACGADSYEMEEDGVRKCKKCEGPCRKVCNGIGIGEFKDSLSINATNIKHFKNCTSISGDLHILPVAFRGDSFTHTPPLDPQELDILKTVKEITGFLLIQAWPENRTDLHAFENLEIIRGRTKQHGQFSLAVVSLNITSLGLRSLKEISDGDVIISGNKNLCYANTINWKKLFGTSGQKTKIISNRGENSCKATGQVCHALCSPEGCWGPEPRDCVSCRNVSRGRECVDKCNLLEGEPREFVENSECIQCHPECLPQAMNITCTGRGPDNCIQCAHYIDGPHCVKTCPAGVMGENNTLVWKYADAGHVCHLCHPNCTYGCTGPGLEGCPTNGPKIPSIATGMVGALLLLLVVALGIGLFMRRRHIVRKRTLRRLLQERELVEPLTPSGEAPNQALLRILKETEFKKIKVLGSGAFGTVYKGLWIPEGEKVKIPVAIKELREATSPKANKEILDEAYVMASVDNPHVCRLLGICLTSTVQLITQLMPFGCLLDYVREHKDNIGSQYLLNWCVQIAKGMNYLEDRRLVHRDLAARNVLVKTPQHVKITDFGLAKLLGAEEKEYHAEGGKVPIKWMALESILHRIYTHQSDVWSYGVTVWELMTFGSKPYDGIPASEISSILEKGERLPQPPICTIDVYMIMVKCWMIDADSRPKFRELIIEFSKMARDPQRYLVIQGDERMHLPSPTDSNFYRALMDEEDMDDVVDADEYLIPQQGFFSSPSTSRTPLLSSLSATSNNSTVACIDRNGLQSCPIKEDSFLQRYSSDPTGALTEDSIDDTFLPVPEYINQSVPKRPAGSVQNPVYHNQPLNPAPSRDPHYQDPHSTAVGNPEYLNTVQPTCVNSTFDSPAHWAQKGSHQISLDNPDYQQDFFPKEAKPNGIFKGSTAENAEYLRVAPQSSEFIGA
Compound,inhibition [1] [%],IC50 [2] [µM],IC50 [3] [µM],IC50 [4] [µM],IC50 [5] [µM],also measured
C#Cc1cccc(Nc2ncnc3cc(N4CCN(CCN(CC)CC)CC4)c(F)cc23)c1,< 20,,,,,
CCN(CC)CCN1CCN(c2cc3ncnc(Nc4ccc(OCc5cccc(F)c5)c(Cl)c4)c3cc2F)CC1,> 20,,,,,
CCN(CC)CCN1CCN(c2cc3ncnc(Nc4ccc(F)c(Cl)c4)c3cc2F)CC1,< 20,,,,,
Fc1ccc(Nc2ncnc3cc(N4CCOCC4)c(F)cc23)cc1Cl,,> 100,> 100,> 100,85.6,
C#Cc1cccc(Nc2ncnc3cc(N4CCOCC4)c(F)cc23)c1,,> 100,> 100,> 100,> 100,
CS(=O)(=O)CCNCc1ccc(-c2ccc3ncnc(Nc4ccc(OCc5cccc(F)c5)c(Cl)c4)c3c2)o1 [LAPATINIB],,,,14.9,,IC50 [6]: 0.6 µM; inhibition [7]: Active; Activity [8]: 69.72%; Activity [9]: 22.35%; Activity [10]: 7.66%
C/C=C/c1ccc(Nc2ncnc3cc(N4CCNCC4)c(F)cc23)cc1,< 20,,,,,
C/C=C/c1ccc(Nc2ncnc3cc(N4CCN(CCOC)CC4)c(F)cc23)cc1,,> 100,> 100,> 100,49.2,
Fc1cccc(COc2ccc(Nc3ncnc4cc(N5CCOCC5)c(F)cc34)cc2Cl)c1,,52.6,57.5,71.8,10.1,
COCCN1CCN(c2cc3ncnc(Nc4ccc(F)c(Cl)c4)c3cc2F)CC1,,49.8,16.4,14.4,12.6,
C#Cc1cccc(Nc2ncnc3cc(N4CCNCC4)c(F)cc23)c1,< 20,,,,,
C#Cc1cccc(Nc2ncnc3cc(N4CCN(CCOC)CC4)c(F)cc23)c1,,68.1,19,19.2,12.8,
C/C=C/c1ccc(Nc2ncnc3cc(N4CCOCC4)c(F)cc23)cc1,,> 100,> 100,> 100,64,
COc1cc2ncnc(Nc3ccc(F)c(Cl)c3)c2cc1OCCCN1CCOCC1 [GEFITINIB],,,,,,viability at 20 µM [11]: 83.3%; Activity [12]: 7.93%; Activity [13]: 7.86%; Activity [14]: 0.95%; Activity [15]: 76.94%; Activity [16]: 16.98%; Activity [17]: 5.95%
C/C=C/c1ccc(Nc2ncnc3cc(N4CCN(CCN(CC)CC)CC4)c(F)cc23)cc1,< 20,,,,,
Fc1cccc(COc2ccc(Nc3ncnc4cc(N5CCNCC5)c(F)cc34)cc2Cl)c1,< 20,,,,,inhibition [18]: inactive; inhibition [19]: inactive; inhibition [20]: inactive; inhibition [21]: inactive; inhibition [22]: inactive; inhibition [23]: inactive; Drug uptake [24]: Active; Drug uptake [25]: Active; Drug uptake [26]: Active; Drug uptake [27]: Active; Drug uptake [28]: Dose-dependent effect; Drug uptake [29]: 74.03%; Drug uptake [30]: 99.95%; Drug uptake [31]: 100%
Fc1ccc(Nc2ncnc3cc(N4CCNCC4)c(F)cc23)cc1Cl,< 20,,,,,
COCCN1CCN(c2cc3ncnc(Nc4ccc(OCc5cccc(F)c5)c(Cl)c4)c3cc2F)CC1,,> 100,> 100,> 100,> 100,

# From ChEMBL document CHEMBL4359820, “Enrichment of novel quinazoline derivatives with high antitumor activity in mitochondria tracked by its self-fluorescence” (Eur J Med Chem, 2019)
